Test results from the NIST ThermoML archive (doi:10.1016/j.jct.2010.05.002).

Details: for vapor or sublimation pressure: Transpiration method; for Triple point temperature: Adiabatic calorimetry

CC(C)(C)c1ccc(-c2ccccc2)cc1 [4-(1,1-dimethylethyl)-1,1'-biphenyl]
Details | vapor or sublimation pressure [kPa]
301 K, Crystal | 8.2e-05
303.9 K, Crystal | 0.000119
305.9 K, Crystal | 0.000156
307.9 K, Crystal | 0.000203
310.9 K, Crystal | 0.000285
312.9 K, Crystal | 0.000369
313.8 K, Crystal | 0.000417
315.8 K, Crystal | 0.000507
318.8 K, Crystal | 0.000708
319.8 K, Crystal | 0.000814
320.2 K, Crystal | 0.000843
321.7 K, Crystal | 0.001012
322.7 K, Crystal | 0.001146
323.2 K, Crystal | 0.001207
325.2 K, Crystal | 0.0015
326.2 K, Crystal | 0.00168
327.4 K, Liquid | 0.00187
331.5 K, Liquid | 0.00263
334.4 K, Liquid | 0.00326
336.6 K, Liquid | 0.00389
338 K, Liquid | 0.00428
338.8 K, Liquid | 0.00465
340.5 K, Liquid | 0.00532
341.6 K, Liquid | 0.00563
343.7 K, Liquid | 0.00682
343.8 K, Liquid | 0.00673
346.6 K, Liquid | 0.00813
347.2 K, Liquid | 0.00852
347.6 K, Liquid | 0.00864
348.8 K, Liquid | 0.00962
349.8 K, Liquid | 0.0103
350.4 K, Liquid | 0.0106
352.8 K, Liquid | 0.01272
354.8 K, Liquid | 0.01441
357.4 K, Liquid | 0.01733
360.2 K, Liquid | 0.02099
362.6 K, Liquid | 0.025
364.9 K, Liquid | 0.02919
367.4 K, Liquid | 0.03524
370 K, Liquid | 0.04103
371.2 K, Liquid | 0.04325
372.6 K, Liquid | 0.04776
373.9 K, Liquid | 0.05134
375.3 K, Liquid | 0.05672
376.7 K, Liquid | 0.05953
378 K, Liquid | 0.06614

Details | Triple point temperature [K]
Crystal | 324.76

Cc1ccc(-c2ccccc2)cc1 [4-methylbiphenyl]
Liquid
Details | vapor or sublimation pressure [kPa]
323.2 K | 0.00854
325.4 K | 0.01016
327.2 K | 0.01156
329.7 K | 0.01376
332.2 K | 0.01664
334.6 K | 0.01979
336.2 K | 0.02224
338.7 K | 0.02634
341.6 K | 0.03282
344.1 K | 0.03851
346.4 K | 0.04496
349 K | 0.05244
351.2 K | 0.06003
353.2 K | 0.0695

Details | Triple point temperature [K]
Crystal | 320.33
